According to publication PMC8776894 (Communications Biology, 2022):
Where “and” joins values, the source holds several entries; their conditions need not be identical. Identical values can stand only once.

Columns and labels:
mice = assay: Acute toxicity test (single i.p. dose); type: in vivo, mouse
Experimental: To ensure that the safety of VK in vivo, acute toxicity test was performed. […] Clinical symptoms (temperature, change in skin, eye color change, general physique, body weight, diarrhea, sedation, and organ index) were recorded (Supplementary Table 3). […] Karyopyknosisa and the cellular swelling of the hepatocyte were moderate in the liver of mice treated with VK (96 and 384 mg/kg). […]
Acute toxicity test. Systemic acute toxicity test by peritoneal injection was performed according to the guideline provided by Center for Drug Evaluation and Research. In addition to the normal group, male mice were randomly divided into the treated groups received a single dose of 1.5 mg/kg, 6 mg/kg, 24 mg/kg, 96 mg/kg and 384 body weight of VK. Clinical signs of toxicity such as mortality, skin, eyes, fur, respiratory pattern , changes in general behavior and activity were individually observed. […]
day, the mice were anesthetized with 1.5% isoflurane in a mixture of 30% O2 and 69% N2O. Blood was collected from muse eyeballs and mixed with 3.2% sodium citrate at a v/v ratio of 1:9. Then, the blood was centrifuged at 3,000 rpm for 10 min.
The obtained plasma was analyzed using an automatic coagulation apparatus (CA1500).

MCAO mice = assay: Mortality after MCAO; type: in vivo, mouse; conditions: vehicle 29.06, P >0.05 vs vehicle
Experimental: Experimental ischemic stroke was performed by MCAO using published protocols[63],[64] with some modifications. In detail, mice (8–10 weeks)[65] were deeply anesthetized with 1.5% isoflurane in a mixture of 30% O2 and 69% N2O. Conditions of the blood gas were maintained at constant levels throughout the operation (PO2, 120 ± 10 mmHg; PCO2, 35 ± 3 mmHg) and temperatures in the temporal muscle and rectum were also maintained at 37.5 ± 0.2°C and 37.0 ± 0.1°C, respectively. Body temperature was kept in the normal range (36.5–37.5 °C) with a heating lamp and a heating pad during surgery. All surgical supplies and instruments were sterilized. The […] (CCA) and the external carotid artery were then gently separated. The blood flow of CCA was blocked with a sterile nylon suture (No.: MSMC21B120PK50, Ruiwode Bio-technology Co., Ltd., China), which was inserted into middle cerebral artery from CCA. The mice in the sham group underwent the same surgery without a nylon suture. After 60 min, the suture was removed and the blood circulation was recovered, MCAO/R was induced. Regional CBF was monitored in all stroke animals by LSCI (PeriScan PSI System; PERIMED, Stockholm, Sweden) to confirm a successful occlusion. […]

MCAO/R mice = assay: Longa test; type: in vivo, mouse
Source text: Mice were graded on a 5-point scale, which was modified from the Longa score.

rat CNS = conditions: injected directly into the rat CNS; cited from earlier work
Source text: B1R and B2R both belong to the G protein-coupled receptor (GPCR) family, with B2R mediating most of the physiological functions of kinin. It has been increasingly appreciated that BK and Lys-BK could act as a ‘double-edged sword’. By inhibiting oxidative stress and apoptosis, the systemic or local delivery of human TK protects against mouse myocardial I/R injury via B2R. Similarly, we described that the neuroprotective effects of VK on stroke in mice was inhibited by HOE140, the specific antagonist of B2R. We also conducted the autodock experiment to evaluate the combination of VK and B2R. The ...

[1] = system: HT22 hippocampal neuron cells (OGD/R); assay: HT22 cell viability after OGD/R (CCK8)
[2] = VK 1.5 mg/kg single i.p., n=5, 14 d observation
[3] = VK 6 mg/kg single i.p., n=6, 14 d observation
[4] = VK 24 mg/kg single i.p., n=6, 14 d observation
[5] = VK 96 mg/kg single i.p., n=6, 14 d observation
[6] = VK 384 mg/kg single i.p., n=6, 14 d observation

With “Gly-Arg-Pro-Hyp-Gly-Phe-Ser-Pro-Phe-Arg-Ile-Asp [VK, Vespakinin-M]” the Body weight (mice; [2]) was “Normal”, the Breathing difficulty (mice; [2]) was “Normal” and the “Change In skin” value (mice; [2]) was “No effect”. The Coma (mice; [2]) was “Normal”, the Death (mice; [2]) was “Alive” and the Diarrhea (mice; [2]) was “Normal”. The Drowsiness (mice; [2]) was “Normal”, the Eye color change (mice; [2]) was “No effect” and the Organ index (mice; [2]) was “Normal”. The Sedation (mice; [2]) was “Normal”, the Temperature (mice; [2]) was “Normal” and the Tremor (mice; [2]) was “Normal”. The Body weight (mice; [3]) was “Normal”, the Breathing difficulty (mice; [3]) was “Normal” and the “Change In skin” value (mice; [3]) was “No effect”. For the same substance, the Coma (mice; [3]) was “Normal”, the Death (mice; [3]) was “Alive” and the Diarrhea (mice; [3]) was “Normal”. For the same substance, the Drowsiness (mice; [3]) was “Normal”, the Eye color change (mice; [3]) was “No effect” and the Organ index (mice; [3]) was “Normal”. The Sedation (mice; [3]) was “Normal”, the Temperature (mice; [3]) was “Normal” and the Tremor (mice; [3]) was “Normal”. The Body weight (mice; [4]) was “Decline”, the Breathing difficulty (mice; [4]) was “Normal” and the “Change In skin” value (mice; [4]) was “No effect”. For the same substance, the Coma (mice; [4]) was “Normal”, the Death (mice; [4]) was “Alive” and the Diarrhea (mice; [4]) was “Normal”. For the same substance, the Drowsiness (mice; [4]) was “Normal”, the Eye color change (mice; [4]) was “No effect” and the Organ index (mice; [4]) was “Normal”. The Sedation (mice; [4]) was “Normal”, the Temperature (mice; [4]) was “Normal” and the Tremor (mice; [4]) was “Normal”. For the same substance, the Body weight (mice; [5]) was “Decline”, the Breathing difficulty (mice; [5]) was “Normal” and the “Change In skin” value (mice; [5]) was “No effect”. For the same substance, the Coma (mice; [5]) was “Normal”, the Death (mice; [5]) was “Alive” and the Diarrhea (mice; [5]) was “Normal”. For the same substance, the Drowsiness (mice; [5]) was “Normal”, the Eye color change (mice; [5]) was “No effect” and the Organ index (mice; [5]) was “Normal”. The Sedation (mice; [5]) was “Normal”, the Temperature (mice; [5]) was “Normal” and the Tremor (mice; [5]) was “Normal”. The liver index (mice; VK 384 mg/kg single i.p.) was “increased liver index”, the Body weight (mice; [6]) was “Decline” and the Breathing difficulty (mice; [6]) was “Normal”. For the same substance, the “Change In skin” value (mice; [6]) was “No effect”, the Coma (mice; [6]) was “Normal” and the Death (mice; [6]) was “Alive”. The Diarrhea (mice; [6]) was “Normal”, the Drowsiness (mice; [6]) was “Normal” and the Eye color change (mice; [6]) was “No effect”. The Organ index (mice; [6]) was “Increased”, the Sedation (mice; [6]) was “Normal” and the Temperature (mice; [6]) was “Normal”. The Tremor (mice; [6]) was “Normal”, the Body weight (mice; VK 24, 96 and 384 mg/kg single i.p.) was “continued to lose weight until day 5” and the “index of brain, myocardium and kidney” value (mice; all treatment dose groups (1.5-384 mg/kg single i.p.)) was “no difference”. For the same substance, the “safe multiple of the effective dose (150 μg/kg)” value (mice; mice) was 640 times, the “safe doses of VK in acute toxicity tests” value (mice; mice, single i.p. dose) was less than 96 mg/kg and the mortality (mice; single i.p. dose 1.5, 6, 24, 96 and 384 mg/kg, observed for 24 h) was “no mortality was observed”. For the same substance, the “Death rate (mortality) of MCAO mice” value (MCAO mice; VK 150 μg/kg, 48 MCAO animals) was 25%, the “Death rate (mortality) of MCAO mice” value (MCAO mice; VK 300 μg/kg, 64 MCAO animals) was 18.75% and the “Longa test score (Fig.2e)” value (MCAO/R mice; 0.5d, VK 150 µg/kg i.p., individual animals) was 4 and 3 (2×) and 2 (3×). For the same substance, the “Longa test score (Fig.2e)” value (MCAO/R mice; 0.5d, VK 300 µg/kg i.p., individual animals) was 2 (3×) and 3 (2×) and 4, the “Longa test score (Fig.2e)” value (MCAO/R mice; 1d, VK 150 µg/kg i.p., individual animals) was 3 and 2 (3×) and 1 (2×) and the “Longa test score (Fig.2e)” value (MCAO/R mice; 1d, VK 300 µg/kg i.p., individual animals) was 2 (3×) and 3 (2×) and 1. The “Longa test score (Fig.2e)” value (MCAO/R mice; 3d, VK 150 µg/kg i.p., individual animals) was 2 (2×) and 1 (4×), the “Longa test score (Fig.2e)” value (MCAO/R mice; 3d, VK 300 µg/kg i.p., individual animals) was 1 (2×) and 2 (4×) and the “Longa test score (Fig.2e)” value (MCAO/R mice; 7d, VK 150 µg/kg i.p., individual animals) was 2 and 1 (5×). The “Longa test score (Fig.2e)” value (MCAO/R mice; 7d, VK 300 µg/kg i.p., individual animals) was 1 (3×) and 2 (3×), the “neurological deficits, Longa test, vs vehicle” value (MCAO/R mice; MCAO/R mice, VK 150 and 300 µg/kg i.p.) was “improved neurological deficits” and the Fig8g neurological score (MCAO/R mice; VK alone or with B1R / B2R blockade, individual animals, n = 5, score and time not given) was 1 and 2 and 0. The Fig8f neurological score (MCAO/R mice; VK alone or with B1R / B2R blockade, individual animals, n = 6, score and time not given) was 1 and 2, the “anti-nociceptive potency relative to BK” value (rat CNS) was “approximately three times more potent” and the “cell activity of HT22 cells after OGD/R” value [1] was “enhanced cell activity”.
